According to ChEMBL document CHEMBL1201862, “PubChem BioAssay data set” (2004):
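Five concentrations, 48 hours, 96-well plates. At the GI50, growth is halved.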 Active and inactive are the calls of the source. No stated cut-off is given here; in the data, active = GI50 up to about 1.1 µM and inactive = higher.

How the values were obtained:
Assay in all cases: inhibition of tumour cell growth, NCI panel, 48 h
[1] = tested on: OVCAR-3
[2] = tested on: Malme-3M
[3] = tested on: M19-MEL
[4] = tested on: OVCAR-5
[5] = tested on: HCC 2998
[6] = tested on: SW-620
[7] = tested on: SK-MEL-5
[8] = tested on: A549
[9] = tested on: SNB-19
[10] = tested on: KM12
[11] = tested on: LOX IMVI
[12] = tested on: A498
[13] = tested on: UACC-62
[14] = tested on: CCRF-CEM
[15] = tested on: EKVX
[16] = tested on: COLO 205

Measured: GI50

C/C(=C\C(C[C@](C)(O)C(O)CCC#C[Si](C)(C)C)S(=O)(=O)c1ccccc1)CC/C=C/CO[Si](C)(C)C(C)(C)C (stereo partly specified)
inactive: [1] 16 µM | [2] 20.7 µM | [3] 17.2 µM | [4] 13.7 µM | [5] 21 µM | [6] 17.3 µM | [7] 13.6 µM | [8] 15 µM | [9] 19.8 µM | [10] 16.8 µM | [11] 13.2 µM | [12] 17.5 µM | [13] 17.4 µM | [14] 10.6 µM | [15] 19.7 µM

CN1C(=O)CC2(C)c3cc(O)cc(Br)c3N(C)C12 (stereo unspecified)
inactive: [1] > 100 µM | [16] > 100 µM | [2] > 100 µM | [3] > 100 µM | [4] > 100 µM | [5] > 100 µM | [6] > 100 µM | [7] > 100 µM | [8] > 100 µM | [9] > 100 µM | [10] > 100 µM | [11] > 100 µM | [12] > 100 µM | [13] 81.5 µM | [14] > 100 µM | [15] > 100 µM

CCOC(=O)C(=O)Nc1ccc(Cl)cc1C
inactive: [1] > 100 µM | [16] > 100 µM | [2] > 100 µM | [3] > 100 µM | [4] > 100 µM | [5] > 100 µM | [6] > 100 µM | [7] > 100 µM | [8] > 100 µM | [9] > 100 µM | [10] > 100 µM | [11] > 100 µM | [13] > 100 µM | [14] > 100 µM | [15] > 100 µM

CC1=C(C(=O)Nc2ccccc2)C(c2ccccc2)C(C(=O)Nc2ccccc2)=C(C)N1
inactive: [1] 40.4 µM | [16] 38.4 µM | [2] > 100 µM | [3] 28.9 µM | [4] > 100 µM | [5] 31 µM | [6] 47.5 µM | [7] 36.9 µM | [8] 35.2 µM | [9] 94.4 µM | [10] 17.3 µM | [12] 86.1 µM | [13] 15.4 µM | [15] 76.4 µM

O=C(CC1C(=O)Nc2ccccc2S1(=O)=O)Nc1cc(Cl)ccc1Cl (stereo unspecified)
inactive: [1] 14.6 µM | [2] 17.9 µM | [3] 16.2 µM | [4] 24.4 µM | [5] 20.5 µM | [6] 19.4 µM | [7] 13.5 µM | [8] 16.7 µM | [9] 15.5 µM | [11] 5.37 µM | [12] 15.8 µM | [13] 14.6 µM | [14] 17.8 µM | [15] 10.6 µM

CC(C)(C)N/N=C(\C(=O)Nc1cccc(Cl)c1)C1C(=O)Nc2ccccc2[S+]1[O-] (stereo unspecified)
inactive: [1] > 100 µM | [16] > 100 µM | [2] 21.6 µM | [3] > 100 µM | [5] > 100 µM | [6] > 100 µM | [7] > 100 µM | [8] > 100 µM | [9] > 100 µM | [10] > 100 µM | [11] > 100 µM | [13] > 100 µM | [14] > 100 µM | [15] > 100 µM

O=c1/c(=C/c2ccccc2[N+](=O)[O-])sc2nnc(-c3cccnc3)n12
inactive: [1] > 100 µM | [2] > 100 µM | [3] > 100 µM | [4] > 100 µM | [5] > 100 µM | [6] 7.03 µM | [7] > 100 µM | [8] > 100 µM | [9] 17.7 µM | [10] > 100 µM | [11] > 100 µM | [12] > 100 µM | [13] > 100 µM | [14] 55.8 µM | [15] > 100 µM

C=C(C)CC(C)(c1cc2ccccc2n1C)N1CCOCC1 (stereo unspecified)
inactive: [1] 66.5 µM | [16] > 100 µM | [2] > 100 µM | [3] > 100 µM | [5] > 100 µM | [6] > 100 µM | [7] 42.2 µM | [8] 59.2 µM | [9] > 100 µM | [10] 38.4 µM | [11] > 100 µM | [13] 45.1 µM | [14] 44.5 µM | [15] 36.4 µM

COC(=O)C12CC(C3CC31)C1CC12 (stereo unspecified)
inactive: [1] > 100 µM | [16] > 100 µM | [2] > 100 µM | [3] > 100 µM | [4] > 100 µM | [5] > 100 µM | [6] > 100 µM | [7] > 100 µM | [8] > 100 µM | [9] > 100 µM | [11] > 100 µM | [12] > 100 µM | [13] > 100 µM | [14] > 100 µM
